Columns and labels:
in vivo [1] = conditions: rat
[2] = papio anubis, in vivo
[3] = biological target: T1, Amine oxidase [flavin-containing] B (Homo sapiens, UniProt P27338)
T1 sequence (P27338 whole entry): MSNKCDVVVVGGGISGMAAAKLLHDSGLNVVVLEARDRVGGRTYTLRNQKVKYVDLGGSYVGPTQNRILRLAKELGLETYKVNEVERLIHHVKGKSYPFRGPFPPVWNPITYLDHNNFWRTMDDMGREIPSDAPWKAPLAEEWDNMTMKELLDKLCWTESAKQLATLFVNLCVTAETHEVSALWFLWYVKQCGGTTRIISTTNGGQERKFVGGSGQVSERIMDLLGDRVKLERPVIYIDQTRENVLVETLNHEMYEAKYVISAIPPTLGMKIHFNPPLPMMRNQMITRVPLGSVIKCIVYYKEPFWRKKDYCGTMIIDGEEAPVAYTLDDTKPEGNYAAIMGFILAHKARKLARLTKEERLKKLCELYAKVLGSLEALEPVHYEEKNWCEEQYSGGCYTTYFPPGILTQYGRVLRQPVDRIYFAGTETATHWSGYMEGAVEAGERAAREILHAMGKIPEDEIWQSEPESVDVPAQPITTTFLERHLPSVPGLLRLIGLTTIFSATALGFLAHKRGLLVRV

[4] = papio anubis, in vivo; remark: listed apart in the source
[5] = mouse, in vivo
[6] = human, Brain, 2 min
[7] = biological target: Prostaglandin G/H synthase 1 (Homo sapiens, UniProt P23219)
[8] = biological target: T2, Macrophage colony-stimulating factor 1 receptor (Homo sapiens, UniProt P07333)
[9] = biological target: T2, Macrophage colony-stimulating factor 1 receptor; remark: listed apart in the source
[10] = rhesus monkey, in vivo
[11] = rat, in vivo, 2 h
[12] = biological target: T3, Prostaglandin G/H synthase 2 (Homo sapiens, UniProt P35354)
T3 sequence (P35354 whole entry): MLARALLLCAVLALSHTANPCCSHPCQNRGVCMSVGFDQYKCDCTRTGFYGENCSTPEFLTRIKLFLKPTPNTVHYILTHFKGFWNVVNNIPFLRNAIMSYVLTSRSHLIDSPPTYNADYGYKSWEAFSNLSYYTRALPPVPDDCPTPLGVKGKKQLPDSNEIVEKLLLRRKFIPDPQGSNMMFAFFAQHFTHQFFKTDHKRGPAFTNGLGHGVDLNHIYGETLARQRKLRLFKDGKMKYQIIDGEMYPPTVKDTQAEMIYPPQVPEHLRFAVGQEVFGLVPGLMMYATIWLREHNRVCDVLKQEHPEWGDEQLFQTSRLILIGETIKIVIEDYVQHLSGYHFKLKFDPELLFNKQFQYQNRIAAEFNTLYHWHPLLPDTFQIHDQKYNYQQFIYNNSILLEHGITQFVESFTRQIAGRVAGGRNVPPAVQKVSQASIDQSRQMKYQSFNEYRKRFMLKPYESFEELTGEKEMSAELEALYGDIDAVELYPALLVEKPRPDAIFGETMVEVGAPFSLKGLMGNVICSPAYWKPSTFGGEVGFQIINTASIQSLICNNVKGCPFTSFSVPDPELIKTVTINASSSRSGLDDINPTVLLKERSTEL

[13] = biological target: Melatonin receptor type 1A (Homo sapiens, UniProt P48039)
physchem = conditions: octanol/water
P2Y purinoceptor 12 = P2Y purinoceptor 12 (Homo sapiens, UniProt Q9H244); type: functional
[14] = rhesus monkey, in vivo, 7 min
[15] = primates, Brain
[16] = primates, Brain, 1.417 h
[17] = rhesus monkey, in vivo, 7 min; remark: listed apart in the source
[18] = primates, Brain; remark: listed apart in the source
[19] = primates, Brain, 4 min
in vivo [20] = conditions: mouse
in vivo [21] = conditions: mouse; remark: listed apart in the source
[22] = mouse, in vivo, 0.5 h
[23] = mouse, in vivo, 0.5 h; remark: listed apart in the source
[24] = biological target: Sphingosine 1-phosphate receptor 2 (Homo sapiens, UniProt O95136)
P2X purinoceptor 7 [25] = biological target: T4, P2X purinoceptor 7 (Homo sapiens, UniProt Q99572)
T4 sequence (Q99572 whole entry): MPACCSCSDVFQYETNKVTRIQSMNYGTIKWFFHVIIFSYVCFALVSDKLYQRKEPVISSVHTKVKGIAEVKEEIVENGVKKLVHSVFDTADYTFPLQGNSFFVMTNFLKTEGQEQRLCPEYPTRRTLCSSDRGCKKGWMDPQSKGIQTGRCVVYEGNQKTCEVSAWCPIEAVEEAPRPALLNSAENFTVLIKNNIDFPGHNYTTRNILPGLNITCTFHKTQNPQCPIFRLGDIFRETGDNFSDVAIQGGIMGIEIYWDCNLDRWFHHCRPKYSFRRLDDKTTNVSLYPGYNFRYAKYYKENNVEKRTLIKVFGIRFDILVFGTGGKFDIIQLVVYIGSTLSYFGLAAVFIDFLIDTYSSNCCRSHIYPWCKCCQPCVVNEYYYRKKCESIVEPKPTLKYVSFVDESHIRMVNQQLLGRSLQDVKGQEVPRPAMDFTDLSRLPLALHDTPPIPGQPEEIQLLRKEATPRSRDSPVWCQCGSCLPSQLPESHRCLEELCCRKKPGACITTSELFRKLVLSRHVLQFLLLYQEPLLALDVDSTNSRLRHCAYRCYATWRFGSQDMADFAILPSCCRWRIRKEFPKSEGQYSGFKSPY

[26] = primates, Brain, 5 min
[27] = biological target: Sphingosine 1-phosphate receptor 1 (Homo sapiens, UniProt P21453)
[28] = cynomolgus monkey, in vivo, 2 h
[29] = mouse, in vivo; remark: listed apart in the source
in vivo [30] = conditions: mouse; remark: listed apart in the source
[31] = mouse, in vivo; remark: listed apart in the source
[32] = mouse, in vivo, 20 min
[33] = mouse, in vivo; remark: listed apart in the source
[34] = mouse, in vivo, 0.05 h
[35] = rhesus monkey, in vivo; remark: listed apart in the source
Cannabinoid receptor 2 = Cannabinoid receptor 2 (Homo sapiens, UniProt P34972)
in vivo [36] = conditions: mouse, hcc4006
in vivo [37] = conditions: mouse; remark: listed apart in the source
in vivo [38] = conditions: C57BL/6, mouse
[39] = rhesus monkey, in vivo; remark: listed apart in the source
[40] = mouse, in vivo, 10 min
in vivo [41] = conditions: C3H, mouse, iv, 10 mg/kg
in vivo [42] = conditions: C3H, mouse, iv, 10 mg/kg; remark: listed apart in the source
P2X purinoceptor 7 [43] = biological target: T4, P2X purinoceptor 7; remark: listed apart in the source
[44] = mouse, in vivo; remark: listed apart in the source
[45] = papio papio, in vivo
[46] = biological target: T1, Amine oxidase [flavin-containing] B; remark: listed apart in the source

Prostaglandin G/H synthase 1, sequence (P23219 whole entry): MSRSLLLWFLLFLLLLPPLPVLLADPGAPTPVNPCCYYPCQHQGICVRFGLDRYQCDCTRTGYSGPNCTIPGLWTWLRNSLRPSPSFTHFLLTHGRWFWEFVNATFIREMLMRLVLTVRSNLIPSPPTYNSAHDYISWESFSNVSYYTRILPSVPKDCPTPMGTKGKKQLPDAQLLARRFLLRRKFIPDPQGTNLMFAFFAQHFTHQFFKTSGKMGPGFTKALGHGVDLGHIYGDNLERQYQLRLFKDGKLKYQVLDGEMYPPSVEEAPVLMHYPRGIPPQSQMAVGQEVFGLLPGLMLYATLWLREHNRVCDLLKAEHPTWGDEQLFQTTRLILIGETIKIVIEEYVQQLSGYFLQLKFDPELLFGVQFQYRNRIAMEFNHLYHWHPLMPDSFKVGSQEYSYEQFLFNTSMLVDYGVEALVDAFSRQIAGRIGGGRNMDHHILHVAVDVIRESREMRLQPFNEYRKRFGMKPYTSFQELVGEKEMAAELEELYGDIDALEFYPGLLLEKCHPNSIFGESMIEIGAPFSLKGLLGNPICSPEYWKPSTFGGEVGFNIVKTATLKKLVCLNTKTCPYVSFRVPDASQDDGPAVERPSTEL
T2 sequence (P07333 whole entry): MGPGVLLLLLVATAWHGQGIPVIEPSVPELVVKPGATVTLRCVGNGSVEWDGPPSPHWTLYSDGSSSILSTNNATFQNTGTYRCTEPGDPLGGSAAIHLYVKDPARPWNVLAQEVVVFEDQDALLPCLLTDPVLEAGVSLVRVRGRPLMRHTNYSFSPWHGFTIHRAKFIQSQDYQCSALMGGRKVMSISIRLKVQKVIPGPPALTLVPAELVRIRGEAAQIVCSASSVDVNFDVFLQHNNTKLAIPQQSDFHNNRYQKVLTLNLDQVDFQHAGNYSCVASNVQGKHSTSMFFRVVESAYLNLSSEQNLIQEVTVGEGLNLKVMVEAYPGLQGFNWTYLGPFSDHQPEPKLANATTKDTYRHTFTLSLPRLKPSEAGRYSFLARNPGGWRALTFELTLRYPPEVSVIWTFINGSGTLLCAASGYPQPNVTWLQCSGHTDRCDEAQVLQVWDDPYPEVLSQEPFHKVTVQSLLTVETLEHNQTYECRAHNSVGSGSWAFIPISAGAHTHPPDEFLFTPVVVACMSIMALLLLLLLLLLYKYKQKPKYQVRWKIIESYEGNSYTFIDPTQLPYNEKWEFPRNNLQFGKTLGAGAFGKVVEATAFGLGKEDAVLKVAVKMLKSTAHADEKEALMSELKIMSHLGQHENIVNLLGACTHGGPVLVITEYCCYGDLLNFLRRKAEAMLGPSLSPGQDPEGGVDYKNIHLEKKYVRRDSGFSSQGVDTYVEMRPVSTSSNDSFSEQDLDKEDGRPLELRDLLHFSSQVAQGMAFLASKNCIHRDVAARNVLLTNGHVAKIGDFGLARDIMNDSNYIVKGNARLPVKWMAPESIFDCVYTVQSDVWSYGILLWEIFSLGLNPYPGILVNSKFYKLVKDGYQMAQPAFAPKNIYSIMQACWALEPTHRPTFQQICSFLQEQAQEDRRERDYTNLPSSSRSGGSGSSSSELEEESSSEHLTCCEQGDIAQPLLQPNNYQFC
Sphingosine 1-phosphate receptor 2, sequence (O95136 whole entry): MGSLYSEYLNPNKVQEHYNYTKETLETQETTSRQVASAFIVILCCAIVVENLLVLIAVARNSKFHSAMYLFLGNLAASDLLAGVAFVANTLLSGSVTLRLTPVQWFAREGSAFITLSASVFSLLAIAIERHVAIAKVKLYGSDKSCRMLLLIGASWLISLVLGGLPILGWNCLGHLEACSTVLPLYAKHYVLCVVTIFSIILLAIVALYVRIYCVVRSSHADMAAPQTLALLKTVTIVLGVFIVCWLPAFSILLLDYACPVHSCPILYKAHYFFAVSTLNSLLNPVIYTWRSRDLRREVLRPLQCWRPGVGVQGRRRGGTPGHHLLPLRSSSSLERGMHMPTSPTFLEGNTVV
Melatonin receptor type 1A, sequence (P48039 whole entry): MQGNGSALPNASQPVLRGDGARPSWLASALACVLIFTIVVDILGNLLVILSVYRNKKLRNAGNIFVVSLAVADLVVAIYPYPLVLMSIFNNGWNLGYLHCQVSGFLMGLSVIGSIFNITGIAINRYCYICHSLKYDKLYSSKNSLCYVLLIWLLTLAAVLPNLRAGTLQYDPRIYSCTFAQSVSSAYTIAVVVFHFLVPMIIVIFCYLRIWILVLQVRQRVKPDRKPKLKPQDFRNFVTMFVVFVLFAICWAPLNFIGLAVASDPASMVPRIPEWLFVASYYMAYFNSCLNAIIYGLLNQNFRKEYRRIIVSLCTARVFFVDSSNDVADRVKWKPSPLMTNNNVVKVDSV
Sphingosine 1-phosphate receptor 1, sequence (P21453 whole entry): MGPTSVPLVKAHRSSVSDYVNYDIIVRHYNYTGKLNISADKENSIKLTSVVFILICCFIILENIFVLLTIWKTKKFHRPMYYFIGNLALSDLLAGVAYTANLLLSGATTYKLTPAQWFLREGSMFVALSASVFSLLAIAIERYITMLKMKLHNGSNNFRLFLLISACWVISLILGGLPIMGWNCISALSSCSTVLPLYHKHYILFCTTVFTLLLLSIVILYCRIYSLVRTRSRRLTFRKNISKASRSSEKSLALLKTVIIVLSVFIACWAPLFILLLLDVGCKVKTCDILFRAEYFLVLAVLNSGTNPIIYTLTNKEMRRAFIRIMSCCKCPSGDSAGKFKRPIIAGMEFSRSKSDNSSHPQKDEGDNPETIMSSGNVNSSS
P2Y purinoceptor 12, sequence (Q9H244 whole entry): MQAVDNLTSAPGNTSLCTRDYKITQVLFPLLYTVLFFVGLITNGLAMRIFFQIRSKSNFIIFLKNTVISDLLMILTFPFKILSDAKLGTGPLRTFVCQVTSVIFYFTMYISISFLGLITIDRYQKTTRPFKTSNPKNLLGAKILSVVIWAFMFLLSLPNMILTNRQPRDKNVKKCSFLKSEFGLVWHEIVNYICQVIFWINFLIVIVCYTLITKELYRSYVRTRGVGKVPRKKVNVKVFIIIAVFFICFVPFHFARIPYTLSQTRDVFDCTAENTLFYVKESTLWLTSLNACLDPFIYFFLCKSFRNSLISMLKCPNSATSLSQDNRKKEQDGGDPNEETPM
Cannabinoid receptor 2, sequence (P34972 whole entry): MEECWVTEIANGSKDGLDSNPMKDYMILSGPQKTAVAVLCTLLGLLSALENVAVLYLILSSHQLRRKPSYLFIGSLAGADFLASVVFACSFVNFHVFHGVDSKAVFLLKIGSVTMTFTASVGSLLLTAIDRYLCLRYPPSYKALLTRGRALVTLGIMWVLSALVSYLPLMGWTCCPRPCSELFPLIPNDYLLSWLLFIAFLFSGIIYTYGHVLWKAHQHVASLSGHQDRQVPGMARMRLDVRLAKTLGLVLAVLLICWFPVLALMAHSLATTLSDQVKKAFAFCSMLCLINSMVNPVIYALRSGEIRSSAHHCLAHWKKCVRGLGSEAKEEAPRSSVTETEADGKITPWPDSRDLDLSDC

SMILES: OCc1cn(Cc2ccc(-c3noc(-c4ccc(OCC[18F])c(C(F)(F)F)c4)n3)cc2)nn1
- tissue uptake at 5 min (in vivo [1]): 0.46 %ID/g

SMILES: COCC1CN(c2noc3cc(OCCCC(F)(F)F)ccc23)[11C](=O)O1 (configuration not stated)
- Vd [2]: 10.9 ml/cm3
- Ki [3]: 0.0029 µM
- Vd [4]: 10.3 ml/cm3

SMILES: COC(=O)C([11CH3])c1cccc(C(=O)c2ccccc2)c1 (configuration not stated)
- SUV [5]: 0.97
- SUV [6]: 1.5
- IC50 [7]: 0.047 µM

SMILES: CS(=O)(=O)c1ccc(-n2c(-c3ccc(O[11CH3])c(F)c3)cnc2Cl)cc1
- IC50 [7]: 3.3 µM

SMILES: CCOc1cc2ccc(C(N)=O)c(Nc3ccc(F)cc3F)c2cc1N1CCN([11CH3])CC1
- Ki [8]: 0.008 µM
- IC50 [9]: 0.006 µM

SMILES: [11CH3]Oc1ccc(Cc2ccncc2)nc1-c1cccc([N+](=O)[O-])c1
- Vd [10]: 48%

SMILES: [11CH3]Oc1ccc(Cc2cn[nH]c2)nc1-c1cccc([N+](=O)[O-])c1
- Vd [10]: 37%

SMILES: CS(=O)(=O)c1ccc(-c2ccsc2-c2ccc(F)cc2)cc1
- SUV [11]: 0.17
- Ki [12]: 0.25 µM

SMILES: O=C(c1ccc([18F])cc1)N(Cc1ccccc1)C1CCCCC1
- Ki [13]: 0.09 µM

SMILES: CCOCCn1cc(C(=O)NC23CC4CC(CC(C4)C2)C3)c(=O)c2cccc(OC)c21
- logD (physchem): 2.8

SMILES: Cc1ccc(-n2nc(C(F)(F)F)cc2-c2ccc(S(=O)(=O)Nc3ccc([18F])cc3)cc2)cc1
- IC50 [7]: 100 µM

SMILES: [11CH3]Oc1ccc(Cl)c(C(=O)NCC23CC4(F)CC(F)(CC(F)(C4)C2)C3)c1
- EC50 (P2Y purinoceptor 12): 0.06 µM

SMILES: [2H]C([2H])([18F])Oc1nc(-c2ccc(OC)cc2)n(-c2ccc(OC)cc2)n1
- SUV [14]: 1.05
- SUV [15]: 54%
- SUV [16]: 1.99
- SUV [17]: 4.11

SMILES: OCCOCCOCc1ccc(-c2noc(-c3ccc(OCC[18F])c(C(F)(F)F)c3)n2)cc1
- SUV [18]: 0.7

SMILES: OCc1ccc(-c2noc(-c3ccc(OCC[18F])c(C(F)(F)F)c3)n2)cc1
- SUV [19]: 3.8

SMILES: CS(=O)(=O)c1ccc(-c2cc(C(F)(F)F)nc(NCc3ccc([18F])cc3)n2)cc1
- tissue uptake at 1 h (in vivo [20]): 1.74 %ID/g
- tissue uptake at 1 h (in vivo [21]): 3.79 %ID/g

SMILES: Cc1nn(C)c2nc(NNC(=O)C(C)c3cc(Cl)nc(O[11CH3])c3)cc(C(C)C)c12 (configuration not stated)
- SUV [22]: 0.48
- SUV [23]: 0.58
- IC50 [24]: 0.00952 µM

SMILES: [11CH3]N1C(=O)CC[C@H]1C(=O)NCc1cccc(C(F)(F)F)c1Cl
- IC50 (P2X purinoceptor 7 [25]): 0.003 µM

SMILES: NS(=O)(=O)c1ccc(-n2nc3ccccc3c2-c2ccc([18F])cc2)cc1
- IC50 [7]: 30 µM

SMILES: OCCOCc1ccc(-c2noc(-c3ccc(OCC[18F])c(C(F)(F)F)c3)n2)cc1
- SUV [26]: 3.2

SMILES: OCC(O)c1ccc(-c2noc(-c3ccc(OCC[18F])c(C(F)(F)F)c3)n2)cc1 (configuration not stated)
- IC50 [27]: 0.0154 µM
- SUV [19]: 2.5

SMILES: C#CCN(C)[C@H](C[18F])Cc1ccccc1
- SUV [28]: 6

SMILES: Cc1nn(C)c2nc(NNC(=O)Nc3cc(Cl)nc(Cl)c3)cc(C(C)C)c12
- IC50 [24]: 0.0685 µM

SMILES: COc1ccc(-n2nc(OCC(F)(F)F)nc2-c2ccc(O[11CH3])cc2)cc1
- SUV [18]: 4.29
- SUV [15]: 54%
- SUV [16]: 1.99

SMILES: O=C1Nc2c(Cl)ccc(OCC[18F])c2C2(CCCCC2)N1
- SUV [29]: 1.74
- tissue uptake (in vivo [30]): 5 %ID/g

SMILES: [11CH3]N1CCN(c2ccc(NC(=O)c3ccc(C#N)o3)c(N3CCCCC3)c2)CC1
- SUV [31]: 0.6

SMILES: CN1c2cc(N)ccc2-c2ccc(N)cc2C1c1ccc(OCC[18F])cc1 (configuration not stated)
- Drug uptake [32]: 150%
- Drug uptake [33]: 10 %ID/cm3

SMILES: [11CH3]Oc1ccc(-c2cnc(Cl)n2-c2ccc(S(N)(=O)=O)cc2)cc1F
- IC50 [7]: 10 µM

SMILES: [13CH3]N1C=C(C(N)=O)Cc2ccccc21
- SUV [34]: 3.5

SMILES: CS(=O)(=O)c1ccc(-c2cc(O[11CH3])nc(NCc3cccs3)n2)cc1
- Drug uptake [35]: 41%
- IC50 [7]: > 1 µM

SMILES: COc1ccc(-c2nc(O[11CH3])nn2-c2ccc(OC)cc2)cc1
- SUV [18]: 4.26
- SUV [16]: 0.62

SMILES: COc1ccc(CC(=O)NC(N/C(=N/C#N)Nc2cccc3ncccc23)C(C)(C)C)cc1O[11CH3] (configuration not stated)
- IC50 (P2X purinoceptor 7 [25]): 0.04 µM

SMILES: CCCCOc1c(OC)ccc2cc(C(=O)NC3CCCCC3)c(=O)[nH]c12
- Ki (Cannabinoid receptor 2): 0.0096 µM

SMILES: Cc1ccc(-c2ccc3cc(OC[C@H](O)C[18F])ccc3n2)cn1
- tissue uptake at 2 min (in vivo [36]): 7.85 %ID/g
- tissue uptake at 2 min (in vivo [37]): 0.2 %ID/g

SMILES: Cc1ccccc1-c1ccc(-c2nc(-c3ccc(CN(C)CCC(=O)O)c(F)c3)no2)cc1C(F)(F)F
- tissue uptake at 1 h (in vivo [38]): 7 %ID/g

SMILES: COc1ccc(COc2ccc(Cc3cnc(N)nc3N)cc2OC)cc1 [GW632580X]
- SUV [39]: <= 3.1
- SUV [29]: <= 1.2

SMILES: O=C(O)C1CN(Cc2ccc(-c3noc(-c4ccc(OCC[18F])c(C(F)(F)F)c4)n3)cc2)C1
- tissue uptake at 5 min (in vivo [1]): 0.027 %ID/g
- SUV [40]: 7

SMILES: [11CH3]Oc1ccc(-c2c(-c3ccc(S(N)(=O)=O)cc3)[nH]c3ccccc23)cc1
- IC50 [7]: 10 µM

SMILES: CN([11CH3])CCc1ccccc1
- tissue uptake at 1 min (in vivo [41]): 7.9 %ID/g
- tissue uptake at 1 h (in vivo [42]): 2.8 %ID/g

SMILES: CN1c2cc(N)ccc2-c2ccc(N)cc2C1c1ccc([18F])cc1 (configuration not stated)
- SUV [29]: 2.3

SMILES: N#C/N=C(/NCc1ccc([18F])cc1)Nc1cccc2ncccc12
- Ki (P2X purinoceptor 7 [43]): 0.0029 µM

SMILES: CCCCNc1ncc(-c2cccc([18F])n2)c(NC2CCC(O)CC2)n1 (configuration not stated)
- Drug uptake [44]: 35%

SMILES: N#CCCn1nc(-c2ccc(OCc3ccccc3)cc2)o[11c]1=O
- Drug uptake [45]: 70%
- IC50 [46]: 0.004 µM
